Calls of active or inactive are those of the source.
Legend:
TGF-beta receptor type-1 = target: T1, TGF-beta receptor type-1 (Homo sapiens, UniProt P36897)
T1 sequence (P36897 whole entry): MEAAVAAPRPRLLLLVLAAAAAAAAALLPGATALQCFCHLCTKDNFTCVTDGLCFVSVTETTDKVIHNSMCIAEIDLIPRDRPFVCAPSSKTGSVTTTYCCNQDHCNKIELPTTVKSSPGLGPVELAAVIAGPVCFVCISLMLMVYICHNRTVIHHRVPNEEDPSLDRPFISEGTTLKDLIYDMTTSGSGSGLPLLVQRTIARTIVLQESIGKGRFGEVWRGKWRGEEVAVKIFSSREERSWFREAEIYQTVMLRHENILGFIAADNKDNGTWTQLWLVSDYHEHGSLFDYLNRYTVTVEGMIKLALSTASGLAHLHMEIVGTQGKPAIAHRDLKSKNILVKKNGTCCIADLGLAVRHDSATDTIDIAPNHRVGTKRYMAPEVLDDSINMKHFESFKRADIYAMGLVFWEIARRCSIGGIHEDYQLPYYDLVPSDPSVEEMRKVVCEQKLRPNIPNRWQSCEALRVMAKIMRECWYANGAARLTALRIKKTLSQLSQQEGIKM

[1] = target: Ribosomal protein S6 kinase alpha-4 (Homo sapiens, UniProt O75676)
Ribosomal protein S6 kinase alpha-4, sequence (O75676 whole entry): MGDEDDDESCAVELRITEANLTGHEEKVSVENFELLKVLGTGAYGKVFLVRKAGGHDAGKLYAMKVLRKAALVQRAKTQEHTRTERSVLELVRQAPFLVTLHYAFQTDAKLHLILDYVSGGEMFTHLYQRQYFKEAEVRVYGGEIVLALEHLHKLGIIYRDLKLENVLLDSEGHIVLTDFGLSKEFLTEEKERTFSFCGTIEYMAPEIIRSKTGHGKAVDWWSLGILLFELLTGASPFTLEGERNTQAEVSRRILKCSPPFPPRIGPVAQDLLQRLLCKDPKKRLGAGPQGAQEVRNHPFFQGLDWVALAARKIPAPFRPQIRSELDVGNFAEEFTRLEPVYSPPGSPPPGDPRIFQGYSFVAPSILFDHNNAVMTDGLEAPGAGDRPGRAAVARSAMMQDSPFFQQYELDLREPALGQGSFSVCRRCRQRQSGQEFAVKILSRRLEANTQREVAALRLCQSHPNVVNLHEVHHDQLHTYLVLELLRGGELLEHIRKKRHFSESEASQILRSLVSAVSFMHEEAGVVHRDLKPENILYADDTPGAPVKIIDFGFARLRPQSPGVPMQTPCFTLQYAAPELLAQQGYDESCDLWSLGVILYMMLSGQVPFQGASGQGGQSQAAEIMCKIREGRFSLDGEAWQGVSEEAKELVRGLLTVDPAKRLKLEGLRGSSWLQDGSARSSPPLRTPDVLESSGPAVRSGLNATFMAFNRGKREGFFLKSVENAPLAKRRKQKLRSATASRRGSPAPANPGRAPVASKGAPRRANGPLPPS

[2] = target: T2, cGMP-dependent protein kinase 1 (Homo sapiens, UniProt Q13976)
T2 sequence (Q13976 whole entry): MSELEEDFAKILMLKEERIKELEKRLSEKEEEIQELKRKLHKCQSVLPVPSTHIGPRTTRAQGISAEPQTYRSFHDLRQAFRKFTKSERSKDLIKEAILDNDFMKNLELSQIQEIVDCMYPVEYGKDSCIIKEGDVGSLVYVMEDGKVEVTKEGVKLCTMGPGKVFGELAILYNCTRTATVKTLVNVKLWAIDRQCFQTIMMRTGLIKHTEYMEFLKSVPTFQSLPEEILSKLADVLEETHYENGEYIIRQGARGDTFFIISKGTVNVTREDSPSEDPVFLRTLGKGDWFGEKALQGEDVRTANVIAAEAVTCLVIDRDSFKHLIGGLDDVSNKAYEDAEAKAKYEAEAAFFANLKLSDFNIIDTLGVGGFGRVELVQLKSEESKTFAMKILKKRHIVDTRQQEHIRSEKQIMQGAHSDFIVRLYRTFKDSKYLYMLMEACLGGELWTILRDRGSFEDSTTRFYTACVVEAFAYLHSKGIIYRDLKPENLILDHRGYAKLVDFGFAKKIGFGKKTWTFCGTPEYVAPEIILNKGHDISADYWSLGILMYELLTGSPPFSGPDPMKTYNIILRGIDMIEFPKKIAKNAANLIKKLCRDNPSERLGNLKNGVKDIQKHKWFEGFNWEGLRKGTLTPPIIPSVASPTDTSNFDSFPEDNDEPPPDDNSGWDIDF

[3] = target: Serine/threonine-protein kinase MRCK alpha (Homo sapiens, UniProt Q5VT25)
Serine/threonine-protein kinase MRCK alpha, sequence (Q5VT25 whole entry): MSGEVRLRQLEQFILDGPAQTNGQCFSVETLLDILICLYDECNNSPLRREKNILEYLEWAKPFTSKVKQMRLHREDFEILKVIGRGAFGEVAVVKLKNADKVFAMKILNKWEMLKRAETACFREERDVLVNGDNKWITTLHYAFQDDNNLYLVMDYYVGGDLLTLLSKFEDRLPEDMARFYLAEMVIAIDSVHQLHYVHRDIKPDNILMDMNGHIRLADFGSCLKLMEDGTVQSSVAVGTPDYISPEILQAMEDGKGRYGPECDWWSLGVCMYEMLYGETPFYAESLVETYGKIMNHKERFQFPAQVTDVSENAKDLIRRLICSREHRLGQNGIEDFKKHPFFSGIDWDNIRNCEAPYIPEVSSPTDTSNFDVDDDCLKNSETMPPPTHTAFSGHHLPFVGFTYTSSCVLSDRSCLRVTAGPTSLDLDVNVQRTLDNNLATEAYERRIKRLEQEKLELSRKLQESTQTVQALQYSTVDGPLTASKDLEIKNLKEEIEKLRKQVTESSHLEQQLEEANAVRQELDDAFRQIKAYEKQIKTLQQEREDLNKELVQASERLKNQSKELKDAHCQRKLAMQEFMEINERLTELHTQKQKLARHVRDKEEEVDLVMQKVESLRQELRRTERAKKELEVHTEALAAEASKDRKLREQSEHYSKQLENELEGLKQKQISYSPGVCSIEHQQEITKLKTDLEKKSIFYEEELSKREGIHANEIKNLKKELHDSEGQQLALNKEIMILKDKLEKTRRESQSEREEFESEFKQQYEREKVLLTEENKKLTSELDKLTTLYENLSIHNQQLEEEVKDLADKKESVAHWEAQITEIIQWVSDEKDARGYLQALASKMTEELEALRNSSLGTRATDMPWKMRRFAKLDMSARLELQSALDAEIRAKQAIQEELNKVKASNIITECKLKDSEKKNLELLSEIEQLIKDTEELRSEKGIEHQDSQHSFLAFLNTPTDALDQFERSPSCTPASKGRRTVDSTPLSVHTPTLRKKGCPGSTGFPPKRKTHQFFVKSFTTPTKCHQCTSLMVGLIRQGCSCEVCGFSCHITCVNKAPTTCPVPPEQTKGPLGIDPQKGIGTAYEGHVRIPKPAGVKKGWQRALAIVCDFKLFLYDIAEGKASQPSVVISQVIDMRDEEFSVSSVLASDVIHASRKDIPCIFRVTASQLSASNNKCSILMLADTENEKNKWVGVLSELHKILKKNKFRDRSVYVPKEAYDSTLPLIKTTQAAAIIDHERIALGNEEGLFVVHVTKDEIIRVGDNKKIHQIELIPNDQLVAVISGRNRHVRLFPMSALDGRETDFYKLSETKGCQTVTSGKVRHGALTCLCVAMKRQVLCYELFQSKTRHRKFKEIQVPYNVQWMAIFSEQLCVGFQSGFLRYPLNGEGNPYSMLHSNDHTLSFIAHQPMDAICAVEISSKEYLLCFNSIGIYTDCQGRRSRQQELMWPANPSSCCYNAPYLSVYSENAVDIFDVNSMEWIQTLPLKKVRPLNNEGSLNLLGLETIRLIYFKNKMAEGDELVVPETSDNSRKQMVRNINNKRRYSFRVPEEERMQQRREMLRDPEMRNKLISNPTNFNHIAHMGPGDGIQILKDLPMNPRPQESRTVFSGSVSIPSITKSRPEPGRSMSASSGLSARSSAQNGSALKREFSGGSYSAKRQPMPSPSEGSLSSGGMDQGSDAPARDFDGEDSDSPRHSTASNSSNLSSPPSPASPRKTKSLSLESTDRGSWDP

[4] = target: Casein kinase II subunit alpha' (Homo sapiens, UniProt P19784)
Casein kinase II subunit alpha', sequence (P19784 whole entry): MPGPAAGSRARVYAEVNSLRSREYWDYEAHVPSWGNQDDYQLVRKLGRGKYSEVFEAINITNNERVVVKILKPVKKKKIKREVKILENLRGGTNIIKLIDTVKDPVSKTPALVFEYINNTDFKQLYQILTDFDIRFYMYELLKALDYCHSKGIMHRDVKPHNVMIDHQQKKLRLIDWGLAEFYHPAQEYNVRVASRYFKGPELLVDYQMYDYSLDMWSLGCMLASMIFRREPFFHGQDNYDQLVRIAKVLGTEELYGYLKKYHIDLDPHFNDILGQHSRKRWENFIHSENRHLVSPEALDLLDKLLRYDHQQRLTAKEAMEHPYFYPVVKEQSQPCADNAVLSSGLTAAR

[5] = target: T3, Signal recognition particle receptor subunit alpha (Homo sapiens, UniProt P08240)
T3 sequence (P08240 whole entry): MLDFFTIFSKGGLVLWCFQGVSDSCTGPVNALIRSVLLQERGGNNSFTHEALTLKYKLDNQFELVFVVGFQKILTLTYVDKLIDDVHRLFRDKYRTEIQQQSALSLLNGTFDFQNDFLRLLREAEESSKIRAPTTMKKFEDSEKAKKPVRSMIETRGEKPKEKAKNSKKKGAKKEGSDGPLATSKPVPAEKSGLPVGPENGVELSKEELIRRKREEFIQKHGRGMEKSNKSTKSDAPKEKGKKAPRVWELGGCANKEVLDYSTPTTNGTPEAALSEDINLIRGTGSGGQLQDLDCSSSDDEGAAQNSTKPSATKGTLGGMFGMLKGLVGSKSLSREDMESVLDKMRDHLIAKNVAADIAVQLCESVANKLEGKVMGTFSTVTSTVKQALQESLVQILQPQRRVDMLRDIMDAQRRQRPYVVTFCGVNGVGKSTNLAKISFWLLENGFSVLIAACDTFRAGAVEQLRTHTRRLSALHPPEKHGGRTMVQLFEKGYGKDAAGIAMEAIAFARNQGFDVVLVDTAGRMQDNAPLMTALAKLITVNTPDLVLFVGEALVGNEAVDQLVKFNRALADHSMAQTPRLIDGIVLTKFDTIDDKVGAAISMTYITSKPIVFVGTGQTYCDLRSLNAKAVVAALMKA

[6] = target: Serine/threonine-protein kinase B-raf (Homo sapiens, UniProt P15056)
Serine/threonine-protein kinase B-raf, sequence (P15056 whole entry): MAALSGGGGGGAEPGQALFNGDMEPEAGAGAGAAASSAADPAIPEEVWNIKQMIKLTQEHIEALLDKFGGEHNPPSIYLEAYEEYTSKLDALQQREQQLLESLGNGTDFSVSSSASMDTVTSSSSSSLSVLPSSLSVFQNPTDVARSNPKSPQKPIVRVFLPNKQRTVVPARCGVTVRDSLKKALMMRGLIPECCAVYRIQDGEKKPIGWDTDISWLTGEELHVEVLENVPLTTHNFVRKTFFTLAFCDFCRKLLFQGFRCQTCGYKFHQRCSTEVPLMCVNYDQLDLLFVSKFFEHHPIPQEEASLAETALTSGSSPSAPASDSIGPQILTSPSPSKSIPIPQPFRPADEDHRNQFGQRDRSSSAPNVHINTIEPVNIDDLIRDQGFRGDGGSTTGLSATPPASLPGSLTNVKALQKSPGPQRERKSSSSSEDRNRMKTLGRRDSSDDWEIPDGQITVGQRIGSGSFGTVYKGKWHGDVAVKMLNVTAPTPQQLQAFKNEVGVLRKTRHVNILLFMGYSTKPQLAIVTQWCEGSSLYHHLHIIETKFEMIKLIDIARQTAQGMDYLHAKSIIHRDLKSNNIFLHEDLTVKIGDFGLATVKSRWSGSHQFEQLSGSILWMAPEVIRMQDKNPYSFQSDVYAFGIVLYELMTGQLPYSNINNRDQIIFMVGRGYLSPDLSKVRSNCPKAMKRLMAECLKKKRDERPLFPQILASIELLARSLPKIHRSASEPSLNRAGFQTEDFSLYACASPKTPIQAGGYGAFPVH

[7] = target: T4, Acyl-CoA dehydrogenase family member 11 (Homo sapiens, UniProt Q709F0)
T4 sequence (Q709F0 whole entry): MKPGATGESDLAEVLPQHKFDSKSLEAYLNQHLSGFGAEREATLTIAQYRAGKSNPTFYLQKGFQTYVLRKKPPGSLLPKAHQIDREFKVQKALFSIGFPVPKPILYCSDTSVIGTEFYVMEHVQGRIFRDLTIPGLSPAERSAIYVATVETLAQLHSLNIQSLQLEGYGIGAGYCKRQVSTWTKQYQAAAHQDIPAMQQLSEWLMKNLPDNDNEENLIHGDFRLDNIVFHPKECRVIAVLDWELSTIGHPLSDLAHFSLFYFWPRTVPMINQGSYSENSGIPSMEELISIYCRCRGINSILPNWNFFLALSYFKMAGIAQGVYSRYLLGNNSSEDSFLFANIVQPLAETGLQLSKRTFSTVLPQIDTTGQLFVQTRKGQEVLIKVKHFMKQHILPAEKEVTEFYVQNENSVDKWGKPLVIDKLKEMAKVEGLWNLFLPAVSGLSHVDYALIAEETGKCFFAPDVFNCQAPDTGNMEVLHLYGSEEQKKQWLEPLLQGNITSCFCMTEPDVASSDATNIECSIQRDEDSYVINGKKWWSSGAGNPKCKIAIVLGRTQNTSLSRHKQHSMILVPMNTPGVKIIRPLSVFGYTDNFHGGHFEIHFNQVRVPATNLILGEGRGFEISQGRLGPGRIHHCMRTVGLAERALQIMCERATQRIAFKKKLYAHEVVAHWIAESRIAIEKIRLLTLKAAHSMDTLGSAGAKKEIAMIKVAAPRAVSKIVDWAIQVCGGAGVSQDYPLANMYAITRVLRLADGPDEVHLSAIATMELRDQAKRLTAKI
Note: in the data inactive means no Kd found up to 30 µM.

Structure (SMILES)	Kd (TGF-beta receptor type-1)	Kd [1]	Kd [2]	Kd [3]	Kd [4]	Kd [5]	Kd [6]	Kd [7]
CO[C@H]1C[C@@H]2CC[C@@H](C)[C@@](O)(O2)C(=O)C(=O)N2CCCC[C@H]2C(=O)O[C@H]([C@H](C)C[C@@H]2CC[C@@H](OP(C)(C)=O)[C@H](OC)C2)CC(=O)[C@H](C)/C=C(\C)[C@@H](O)[C@@H](OC)C(=O)[C@H](C)C[C@H](C)/C=C/C=C/C=C/1C [RIDAFOROLIMUS]	> 30 µM (inactive)	> 30 µM (inactive)	> 30 µM (inactive)	> 30 µM (inactive)	> 30 µM (inactive)	> 30 µM (inactive)	> 30 µM (inactive)	> 30 µM (inactive)
O=c1[nH]ccc2cc(OC3CCNCC3)ccc12 [SAR-407899 FREE BASE]	> 30 µM (inactive)	> 30 µM (inactive)	0.004 µM	0.01 µM (active)	> 30 µM (inactive)	> 30 µM (inactive)	> 30 µM (inactive)	> 30 µM (inactive)
CN1CCN(CCOc2cc(OC3CCOCC3)c3c(Nc4c(Cl)ccc5c4OCO5)ncnc3c2)CC1 [SARACATINIB]	0.197 µM (active)	> 30 µM (inactive)	> 30 µM (inactive)	> 30 µM (inactive)	> 30 µM (inactive)	> 30 µM (inactive)	> 30 µM (inactive)	> 30 µM (inactive)
Cn1cc(-c2cnn3c(N)c(Br)c([C@@H]4CCCNC4)nc23)cn1 [SCH-900776]	> 30 µM (inactive)	3.41 µM	> 30 µM (inactive)	> 30 µM (inactive)	0.279 µM (active)	> 30 µM (inactive)	> 30 µM (inactive)	> 30 µM (inactive)
CO[C@H]1C[C@@H]2CC[C@@H](C)[C@@](O)(O2)C(=O)C(=O)N2CCCC[C@H]2C(=O)O[C@H]([C@H](C)C[C@@H]2CC[C@@H](O)[C@H](OC)C2)CC(=O)[C@H](C)/C=C(\C)[C@@H](O)[C@@H](OC)C(=O)[C@H](C)C[C@H](C)/C=C/C=C/C=C/1C [SIROLIMUS]	> 30 µM (inactive)	> 30 µM (inactive)	> 30 µM (inactive)	> 30 µM (inactive)	> 30 µM (inactive)	> 30 µM (inactive)	> 30 µM (inactive)	> 30 µM (inactive)
CO[C@H]1C[C@@H]2CC[C@@H](C)[C@@](O)(O2)C(=O)C(=O)N2CCCC[C@H]2C(=O)O[C@H]([C@H](C)C[C@@H]2CC[C@@H](OC(=O)C(C)(CO)CO)[C@H](OC)C2)CC(=O)[C@H](C)/C=C(\C)[C@@H](O)[C@@H](OC)C(=O)[C@H](C)C[C@H](C)/C=C/C=C/C=C/1C [TEMSIROLIMUS]	> 30 µM (inactive)	> 30 µM (inactive)	> 30 µM (inactive)	> 30 µM (inactive)	> 30 µM (inactive)	> 30 µM (inactive)	> 30 µM (inactive)	> 30 µM (inactive)
O=C(Cc1ccc(-c2ccc(OCCN3CCOCC3)cc2)cn1)NCc1ccccc1 [TIRBANIBULIN]	> 30 µM (inactive)	> 30 µM (inactive)	> 30 µM (inactive)	> 30 µM (inactive)	> 30 µM (inactive)	> 30 µM (inactive)	> 30 µM (inactive)	> 30 µM (inactive)
O=C1NC(=O)[C@@H](c2cn3c4c(cccc24)CCC3)[C@@H]1c1c[nH]c2ccccc12 [TIVANTINIB]	> 30 µM (inactive)	> 30 µM (inactive)	> 30 µM (inactive)	> 30 µM (inactive)	> 30 µM (inactive)	> 30 µM (inactive)	> 30 µM (inactive)	> 30 µM (inactive)
C[C@@H](N)c1ccc(C(=O)Nc2ccnc3[nH]ccc23)cc1 [Y-39983]	> 30 µM (inactive)	> 30 µM (inactive)	> 30 µM (inactive)	> 30 µM (inactive)	2.74 µM (active)	> 30 µM (inactive)	> 30 µM (inactive)	> 30 µM (inactive)
CN1C/C=C/CCOc2cccc(c2)-c2ccnc(n2)Nc2cccc(c2)C1 [ZOTIRACICLIB]	> 30 µM (inactive)	> 30 µM (inactive)	> 30 µM (inactive)	> 30 µM (inactive)	2.3 µM (active)	> 30 µM (inactive)	> 30 µM (inactive)	> 30 µM (inactive)
